Experimental data as given in patent EP4008330A1, “COMBINED INHIBITION OF AMINO ACID TRANSPORTERS FOR INHIBITING HUMAN PLASMACYTOID DENDRITIC CELL ACTIVITY DURING AUTOIMMUNITY” (Max-Planck-Gesellschaft zur Förderung der Wissenschaften …, priority 2020, dated 2022).

Key:
mTORC1 = assay: S6 (S235/236) phosphorylation in pDC by flow cytometry, as measure of mTORC1 activity; assay type: cell-based, human; conditions: pDC in IL-3 with inhibitor, stimulated with CpG-A; 20 nM RAP, 1µM AZD, BAR
Procedure: (§1) Cells were stimulated with 5 µM CpG-A ODN (ODN2216, InvivoGen) for times indicated.
(§2) Isolated pDC staining was performed in 0.5% BSA in PBS for 10 min at RT, dead cells were excluded with the LIVE/DEAD Fixable Near-IR or Aqua Dead Cell Stain Kits (Thermo scientific). Unspecific binding was blocked with FcR blocking reagent (Miltenyi). The following fluorochrome-conjugated Abs were used for intracellular staining: IFNα (Miltenyi, LT27:295), TNFα (BioLegend, clone Mab11), pS6(S235/236; CST, clone D57.2.2e), pSTAT5 (Y694; CST, clone C71E5). After surface staining, cells were fixed using Fixation/Permeabilization Kit (BD Bioscience) for 20 min at 4°C, and then additionally permeabilized in Perm/Wash solution for 30 min at 4°C, after which cells were incubated with antibodies against intracellular proteins, at previously determined antibody dilutions, for 30 min at RT. […] Cycloheximide (Sigma) at 100 µg/ml was used as a positive control for protein synthesis inhibition.

pDC [1] = assay: Intracellular IFNα and TNFα production by CpG-A-stimulated isolated pDC (flow cytometry); assay type: cell-based, human
Text: PBMC from buffy coats from healthy blood donors were isolated by density gradient centrifugation using SepMate tubes and Lymphoprep (both […] Technologies). pDC were negatively selected from PBMC using the plasmacytoid dendritic cell isolation kit II (Miltenyi Biotec). Buffy coats were kindly provided by the Institute for Transfusion Medicine and Gene Therapy, Medical Center - University of Freiburg (donor consent, anonymized). Skin samples of lupus patients were obtained through the biobank of the SFB829 (Z4 project) with informed consent from all the subjects and ethical approval obtained from the Ethics Committee at the University of Cologne (votes 12-163 and 19-1146). SLE PBMC were provided by ImmRheum biobank in Freiburg, a project that was approved by the local ethical committee (votes 507/16 and 624/14). All patients who provided blood to the biobank had provided written informed consent.
as §1
as §2, with “The following fluorochrome-conjugated monoclonal antibodies were used for staining cell surface markers: IL-3Ra (CD123) (Miltenyi Biotec, clone AC145), HLA-DR (BD Bioscience, clone G46-6), CD116 (BD Bioscience, clone hGMCSFR-M1), CD4 (Biolegend, clone A161A1). […] Isolated” for “Isolated”

[2] = molecular target: T1, System LAA transporters SLC7A5 and SLC3A2 (Homo sapiens, UniProt Q01650); assay: Kynurenine uptake by pDC (flow cytometry), System LAA transporter activity; assay type: cell-based
T1 construct: freshly isolated pDC from PBMC of healthy donors and SLE patients also expressed System LAA transporters SLC7A5 and SLC3A2; endogenous in cells; host or cells: Primary plasmacytoid dendritic cells isolated from PBMC of human donors
T1 sequence (Q01650 whole entry): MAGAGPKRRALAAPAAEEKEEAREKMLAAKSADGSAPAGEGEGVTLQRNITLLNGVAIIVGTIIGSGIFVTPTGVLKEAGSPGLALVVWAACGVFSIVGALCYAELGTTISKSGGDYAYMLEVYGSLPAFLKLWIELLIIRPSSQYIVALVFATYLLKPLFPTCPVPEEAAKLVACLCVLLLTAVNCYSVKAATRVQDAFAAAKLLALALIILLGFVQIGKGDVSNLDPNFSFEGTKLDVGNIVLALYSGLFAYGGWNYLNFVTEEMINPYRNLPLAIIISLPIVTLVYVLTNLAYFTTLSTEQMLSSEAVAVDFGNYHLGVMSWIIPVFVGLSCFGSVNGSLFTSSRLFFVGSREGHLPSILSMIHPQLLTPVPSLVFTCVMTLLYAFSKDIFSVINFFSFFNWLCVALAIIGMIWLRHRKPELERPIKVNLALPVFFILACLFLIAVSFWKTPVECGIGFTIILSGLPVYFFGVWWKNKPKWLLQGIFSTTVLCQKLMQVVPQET
T1 sequence (P08195 103-630 partner limits assumed): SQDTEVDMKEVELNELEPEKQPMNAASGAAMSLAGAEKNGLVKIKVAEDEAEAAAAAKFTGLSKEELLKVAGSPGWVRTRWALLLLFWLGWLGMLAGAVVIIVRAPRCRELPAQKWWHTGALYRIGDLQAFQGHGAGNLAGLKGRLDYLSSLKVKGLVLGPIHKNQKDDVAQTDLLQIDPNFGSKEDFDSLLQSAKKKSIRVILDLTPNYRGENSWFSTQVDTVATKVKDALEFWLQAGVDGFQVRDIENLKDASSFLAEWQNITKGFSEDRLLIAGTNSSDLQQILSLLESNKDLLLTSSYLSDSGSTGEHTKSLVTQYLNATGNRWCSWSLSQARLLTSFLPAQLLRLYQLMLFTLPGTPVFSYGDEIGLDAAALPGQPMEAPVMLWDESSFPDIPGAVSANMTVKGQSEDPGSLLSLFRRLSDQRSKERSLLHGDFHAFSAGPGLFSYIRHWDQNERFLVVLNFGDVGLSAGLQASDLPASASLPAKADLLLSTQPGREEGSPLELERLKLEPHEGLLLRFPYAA
Procedure: (§3) Briefly, stained cells were incubated in HBSS (Gibco) with 200 µM kynurenine (Sigma) for 4 min at 37°C.
To assess whether IL-3-induced expression of SLC7A5 and SLC3A2 allowed the assembly of a functional System LAA transporter, we used a flow cytometry-based assay that measures the ability of cells to take up kynurenine, a naturally fluorescing molecule that is transported into cells via SLC7A5; this can be used as a proxy measurement of large neutral amino acid (LNAA) uptake. […] Of interest, freshly isolated pDC from PBMC of healthy donors and SLE patients also expressed System LAA transporters SLC7A5 and SLC3A2 (Figure 5D) and furthermore pDC from healthy donors had the ability to take up kynurenine immediately ex vivo, a process that was blocked by BCH (Figure 5E).

STAT5 (Y694) = STAT5 (Y694) phosphorylation in pDC by flow cytometry; assay type: cell-based, human; conditions: IL-3-induced; pDC with inhibitor o/n
Procedure: as §1, §2

SLC7A11 = SLC7A11 mRNA expression in pDC (PrimeFlow RNA); assay type: cell-based, human; conditions: pDC in IL-3 and inhibitor o/n; for SLC7A11 and SLC7A5 mRNA expression (double positive cells): then CpG-A 5h (Figure 12B)
Procedure: as §1, §3

SLC7A5 and SLC3A2 = SLC7A5 and SLC3A2 mRNA expression in pDC (PrimeFlow RNA); conditions: pDC in IL-3 and inhibitor o/n, then CpG-A 5h
pDC [3] = assay: Combined kynurenine uptake and pS6 (S235/236) in pDC (double positive cells); assay type: cell-based, human
Text: To confirm that functional System LAA transport is a prerequisite for mTORC1 activation in response to CpG-A, the effects of IL-3 and CpG-A were examined on combined measurements of kynurenine uptake, S6 (S235/236) phosphorylation and cytokine production.

pDC [4] = assay: Live cells / cell death of isolated pDC (LIVE/DEAD stain); assay type: cell-based
Procedure: as §1, §2

pDC [5] = assay: Lactate levels in pDC culture medium (Cedex Bio Analyzer); assay type: cell-based, human; conditions: pDC in IL-3, CpG-A and inhibitor for 10 h
Procedure: as §1
Glucose and lactate were measured in cell culture supernatants using the Cedex Bio Analyzer (Roche) and data presented as mmol/L.

pDC [6] = assay: De novo protein synthesis in pDC, incorporation of puromycin analogue (OPP); assay type: cell-based, human; conditions: pDC in IL-3, CpG-A for 10 h and inhibitor
[7] = pDC in IL-3 and inhibitor o/n, then CpG-A 5h, 20 nM RAP, 250 nM TOR, 10µM HPA, 1µM AZD, BAR, 5 µM ERA, 100 or 200 µM SAZ
[8] = pDC in IL-3 and inhibitor o/n, then CpG-A 5h, 20 nM RAP, 10µM HPA, 1µM AZD, BAR, 5 µM ERA, 100 or 200 µM SAZ
[9] = cultured pDC +/- IL-3, +/- CpG-A, 200 µM kynurenine 4 min, 10 mM BCH at time of uptake
[10] = pDC in IL-3, CpG-A and inhibitors for 5h after o/n rest (Figure 4E), 10µM HPA, 1 µM oligomycin

With `Cc1cc(Nc2nc(N[C@@H](C)c3ncc(F)cn3)ncc2Cl)n[nH]1` [AZD, AZD1480] the “pS6 (S235/236) expression” value (mTORC1) was “reductions”, the IFNα production (pDC [1]; [7]) was “lost and decrease” and the TNFα production (pDC [1]; [8]) was “decrease”. The IFNα production (pDC [1]; pDC maintained in GM-CSF and inhibitor o/n, then CpG-A 5h (Figure 8)) was “inhibited”, the kynurenine uptake [2, 9] was “reductions” and the “pSTAT5 (Y694) expression” value (STAT5 (Y694)) was “inhibited”. For the same compound, the “SLC7A11 and SLC7A5 mRNA expression (double positive cells)” value (SLC7A11) was “lost expression of both transporters”, the “SLC7A5 and SLC3A2 mRNA expression” value (SLC7A5 and SLC3A2) was “significantly inhibited” and the “kynurenine uptake and pS6 (S235/236) expression (cells with high rates of kynurenine uptake and mTORC1 activity)” value (pDC [3]; pDC in GM-CSF and inhibitor o/n, then CpG-A 5h (Figure 8)) was “inhibited”.

`CCS(=O)(=O)N1CC(CC#N)(n2cc(-c3ncnc4[nH]ccc34)cn2)C1` [BAR, baricitinib] was tested, and the “live cells (cell death / cell survival)” value (pDC [4]; BAR 25 to 100 nM, alone or with SAZ, IL-3 o/n, then CpG-A 5h (Figure 14C)) was “increased cell death”.

In the case of `NC1(C(=O)O)CC2CCC1C2` (centres unmarked) [BCH, 2-Aminobicyclo[2.2.1]heptane-2-carboxylic acid], the kynurenine uptake [2, 9] is reported as “abrogated transport of kynurenine in all of the conditions” and the kynurenine uptake ([2]; pDC from healthy donors immediately ex vivo, 10 mM BCH) is reported as “blocked”.

`CCOc1ccccc1-n1c(C(C)N2CCN(C(=O)COc3ccc(Cl)cc3)CC2)nc2ccccc2c1=O` (centres unmarked) [ERA, erastin] was tested, and the “live cells (cell death)” value (pDC [4]) was “absence of appreciable cell death”.

`CC(C)[C@H]1CC[C@@]2(CO2)[C@H]2C(=O)OCC(C(=O)O)=C[C@H]12` [HPA, heptelidic (koningic) acid] was tested, and the IFNα production (pDC [1]; [7]) was “reductions”, the TNFα production (pDC [1]; [8]) was “reductions” and the “lactate levels in medium” value (pDC [5]) was “reduced secreted lactate levels to below those in cultures of unstimulated pDC”. For the same compound, the “protein synthesis measured by incorporation of puromycin analogue (OPP)” value (pDC [6]) was “caused reductions in overall protein synthesis”.

For `CC[C@H]1/C=C/C=C/C[C@@H](C)[C@H](O)[C@@](C)(O)C(=O)[C@@H](C)[C@H](O)[C@@H](C)C(=O)[C@@H](C)[C@H](O)[C@@H](C)/C=C/C(=O)O[C@@H]2[C@H](C)[C@H](CC1)O[C@]1(CC[C@H](C)[C@H](C[C@@H](C)O)O1)[C@H]2C` [OLI, oligomycin], the IFNα production (pDC [1]; [10]) was “inhibited IFNα production to approximately the same extent as HPA” and the TNFα production (pDC [1]; [10]) was “no effect”.

In the case of `O=C(O)c1cc(/N=N/c2ccc(S(=O)(=O)Nc3ccccn3)cc2)ccc1O` [Sulfasalazine, sulfasalazine], the IFNα production (pDC [1]; [7]) is reported as “inhibited”, the TNFα production (pDC [1]; [8]) is reported as “inhibited” and the “kynurenine uptake and pS6 (S235/236) expression (cells positive for both)” value (pDC [3]; pDC in IL-3 and inhibitor o/n, then CpG-A 5h) is reported as “reductions”.

With `CCC(=O)N1CCN(c2ccc(-n3c(=O)ccc4cnc5ccc(-c6cnc7ccccc7c6)cc5c43)cc2C(F)(F)F)CC1` [TOR, torin1] the IFNα production (pDC [1]; [7]) was “similar, although less pronounced effect”, the “SLC7A11 mRNA expression” value (SLC7A11; then CpG-A 5h) was “inhibited” and the “SLC7A11 and SLC7A5 mRNA expression (double positive cells)” value (SLC7A11) was “similar, although less pronounced effect”. For the same compound, the “lactate levels in medium” value (pDC [5]) was “decline in CpG-A-induced lactate release”.
